Experimental data reported in paper PMC5985834, “A Testosterone Metabolite 19-Hydroxyandrostenedione Induces Neuroendocrine Trans-Differentiation of Prostate Cancer Cells via an Ectopic Olfactory Receptor” (Frontiers in Oncology, 2018).
pEC50: −log10 of the molar value. Like-named read-outs stand apart in the source and are kept apart here. Where a SMILES comes first, the peptide text is derived from it. [ ]: non-standard residue; d: D form.

How the values were obtained:
OR51E2 [1] = molecular target: T1, OR51E2 (Homo sapiens, UniProt Q9H255); assay: cAMP CRE-luciferase reporter assay in Hana3A cells; type: cell-based; details: agonist, M10d medium, read-out: EC50 (potency) /
T1 construct: OR51E2 plasmid transiently transfected into Hana3A cells with CREB-luciferase reporter
T1 sequence (Q9H255 1-320): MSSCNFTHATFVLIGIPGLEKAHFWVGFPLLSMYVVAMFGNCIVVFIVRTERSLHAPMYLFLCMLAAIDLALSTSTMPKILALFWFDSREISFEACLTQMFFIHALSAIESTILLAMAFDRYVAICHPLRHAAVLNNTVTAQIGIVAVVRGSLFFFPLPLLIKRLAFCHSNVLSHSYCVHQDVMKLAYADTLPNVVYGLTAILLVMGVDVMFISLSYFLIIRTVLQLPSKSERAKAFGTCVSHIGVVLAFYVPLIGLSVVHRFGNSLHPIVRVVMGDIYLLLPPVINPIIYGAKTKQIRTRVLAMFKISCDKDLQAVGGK

OR51E2 [2] = molecular target: T1, OR51E2; assay: cAMP CRE-luciferase reporter assay in Hana3A cells; type: cell-based; details: agonist, M10d medium, max conc. 10 µM, below the EC50, unreliable
From the text: cAMP CRE-luciferase reporter assay in Hana3A cells on OR51E2

`O=C1CCCN1` [2-Pyrrolidinone] showed a pEC50 (OR51E2 [1]; max conc. 100 µM) of 8.72.
`CCCCCCCCCCCCCCCC(=O)O` [Palmitic acid] gave a pEC50 (OR51E2 [1]; max conc. 1 mM) of 8.01.
`C[C@]12CC[C@H]3[C@@H](CCC4=CC(=O)CC[C@@]43CO)[C@@H]1CCC2=O` [19-OH AD, 19-hydroxyandrost-4-ene-3,17-dione] was tested, and the pEC50 (OR51E2 [1]; max conc. 10 µM) was 9.82.
Compound `O=C(O)[C@@H](O)CO` [L-Glyceric acid] has a pEC50 (OR51E2 [1]; max conc. 1 mM) of 8.72.
`NC(N)=O` [Urea] gave a pEC50 (OR51E2 [1]; max conc. 10 mM) of 7.64.
With `Oc1ccc(-c2[o+]c3cc(O)cc(O)c3cc2O)cc1` [Pelargonidin] the pEC50 (OR51E2 [1]; max conc. 100 µM) was 9.38.
For `C[C@]12CC[C@@H]3c4ccc(O)cc4CC[C@H]3[C@@H]1C[C@@H](O)[C@@H]2O` [Estriol], the “EC50 (potency) /” value (OR51E2 [2]) was 53000 nM.
For `C[C@@H](N)C(=O)N[C@H](C)C(=O)O` [D-Alanyl-D-alanine] (H-[dA]-[dA]-OH), the pEC50 (OR51E2 [1]; max conc. 3.16 mM) was 4.85.
`COc1cc(CCC(=O)CC(=O)CCc2ccc(O)c(OC)c2)ccc1O` [Tetrahydrocurcumin] gave a pEC50 (OR51E2 [1]; max conc. 316 µM) of 6.24.
Work on `CC(=O)N[C@@H](CCC(=O)O)C(=O)O` [N-Acetylglutamic acid] yielded a pEC50 (OR51E2 [1]; max conc. 10 µM) of 9.64.
`O=C(O)C(=O)CO` [Hydroxypyruvic acid] was tested, and the pEC50 (OR51E2 [1]; max conc. 316 µM) was 6.38.
With `COc1ccc(NC=O)c(C(=O)CCNC(C)=O)c1` [AFMK] the pEC50 (OR51E2 [1]; max conc. 3.16 mM) was 4.92.
